Assay results: ChEMBL document CHEMBL4184207, “Novel compounds with potent CDK9 inhibitory activity for the treatment of myeloma” (Bioorg Med Chem Lett, 2018)

What was measured:
CDK9/cyclin T1 = CDK9/cyclin T1 (Homo sapiens, UniProt P50750); assay: Inhibition of N-terminal GST-HIS6 fusion protein tagged human full length CDK9 (M1 to F372 residues)/N-terminal GST-HIS6 fusion protein tagged human Cyclin-T1 (M1 to K726 residues) expressed in Sf9 cells at 10 uM using TAMRA-Rbtide substrate and ATP incubated for 1 hr by fluorescent polarization assay
[1] = target: T1, Serine/threonine-protein kinase PLK1 (Homo sapiens, UniProt P53350); assay: Inhibition of human PLK1 kinase domain at 10 uM using 5-TAMRA-RGSFNDTLDFD-NH2 substrate and ATP incubated for 90 mins by fluorescent polarization assay
RPMI-8226 = assay: Antiproliferative activity against human RPMI8226 cells assessed as inhibition of cell proliferation incubated for 72 hrs by Cell-titer-Glo luminescent cell viability assay; assay type: functional, cell-based; settings: RPMI-8226, 72 h
[2] = target: CDK7/Cyclin H/MNAT1 (Homo sapiens) (UniProt P51946+P50613+P51948); assay: Inhibition of N-terminal GST-HIS6 fusion protein tagged human CDK7 (M1 to F346 residues)/N-terminal HIS6-tagged human Cyclin-H (M1 to L323 residues)/N-terminal HIS6-tagged human MAT1 (M1 to S306 residues) expressed in Sf9 cells at 1 uM using RB-CTF substrate and ATP incubated for 1 hr by fluorescent polarization assay
[3] = target: T1, Serine/threonine-protein kinase PLK1; assay: Inhibition of human PLK1 kinase domain using 5-TAMRA-RGSFNDTLDFD-NH2 substrate and ATP incubated for 90 mins by fluorescent polarization assay
[4] = target: CDK2/Cyclin A2 (Homo sapiens) (UniProt P24941+P20248); assay: Inhibition of human full length CDK2 (M1 to L298 residues)/human full length Cyclin-A2 (M1 to L432 residues) expressed in Sf9 cells at 1 uM using TAMRA-histone H1-derived peptide substrate and ATP incubated for 1 hr by fluorescent polarization assay

Chain of CDK9/cyclin T1 (O60563 whole entry, the tested form may be a part): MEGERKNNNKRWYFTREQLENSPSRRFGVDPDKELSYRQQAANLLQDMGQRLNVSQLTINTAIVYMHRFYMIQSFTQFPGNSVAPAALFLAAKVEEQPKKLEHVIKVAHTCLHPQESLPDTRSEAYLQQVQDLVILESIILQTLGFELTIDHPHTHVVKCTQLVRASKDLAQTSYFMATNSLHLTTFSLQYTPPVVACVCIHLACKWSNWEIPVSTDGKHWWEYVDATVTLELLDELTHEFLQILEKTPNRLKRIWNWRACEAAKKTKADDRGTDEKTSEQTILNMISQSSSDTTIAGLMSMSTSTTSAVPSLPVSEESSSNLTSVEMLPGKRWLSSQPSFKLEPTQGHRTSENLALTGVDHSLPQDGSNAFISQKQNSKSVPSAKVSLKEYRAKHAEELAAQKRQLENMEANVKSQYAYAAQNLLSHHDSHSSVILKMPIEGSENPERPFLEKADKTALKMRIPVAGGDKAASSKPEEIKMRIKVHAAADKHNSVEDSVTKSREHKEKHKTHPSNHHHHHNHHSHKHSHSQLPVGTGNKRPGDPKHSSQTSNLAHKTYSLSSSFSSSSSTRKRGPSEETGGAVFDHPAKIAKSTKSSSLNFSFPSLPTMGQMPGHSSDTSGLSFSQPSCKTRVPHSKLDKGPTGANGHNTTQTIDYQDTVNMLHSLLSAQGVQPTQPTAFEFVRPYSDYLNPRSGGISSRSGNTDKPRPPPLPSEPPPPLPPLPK
Chain of CDK9/cyclin T1 (P50750 whole entry, the tested form may be a part): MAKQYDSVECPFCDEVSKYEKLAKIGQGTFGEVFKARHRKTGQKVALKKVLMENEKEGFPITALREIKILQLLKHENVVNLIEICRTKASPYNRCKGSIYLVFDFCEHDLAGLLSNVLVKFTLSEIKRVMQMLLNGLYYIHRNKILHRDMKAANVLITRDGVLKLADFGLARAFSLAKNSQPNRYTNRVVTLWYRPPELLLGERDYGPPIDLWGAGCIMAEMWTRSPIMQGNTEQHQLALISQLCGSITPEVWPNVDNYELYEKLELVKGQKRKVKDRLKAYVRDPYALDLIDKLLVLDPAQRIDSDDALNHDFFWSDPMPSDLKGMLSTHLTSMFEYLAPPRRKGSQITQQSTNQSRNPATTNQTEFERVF
T1 sequence (P53350 whole entry, the tested form may be a part): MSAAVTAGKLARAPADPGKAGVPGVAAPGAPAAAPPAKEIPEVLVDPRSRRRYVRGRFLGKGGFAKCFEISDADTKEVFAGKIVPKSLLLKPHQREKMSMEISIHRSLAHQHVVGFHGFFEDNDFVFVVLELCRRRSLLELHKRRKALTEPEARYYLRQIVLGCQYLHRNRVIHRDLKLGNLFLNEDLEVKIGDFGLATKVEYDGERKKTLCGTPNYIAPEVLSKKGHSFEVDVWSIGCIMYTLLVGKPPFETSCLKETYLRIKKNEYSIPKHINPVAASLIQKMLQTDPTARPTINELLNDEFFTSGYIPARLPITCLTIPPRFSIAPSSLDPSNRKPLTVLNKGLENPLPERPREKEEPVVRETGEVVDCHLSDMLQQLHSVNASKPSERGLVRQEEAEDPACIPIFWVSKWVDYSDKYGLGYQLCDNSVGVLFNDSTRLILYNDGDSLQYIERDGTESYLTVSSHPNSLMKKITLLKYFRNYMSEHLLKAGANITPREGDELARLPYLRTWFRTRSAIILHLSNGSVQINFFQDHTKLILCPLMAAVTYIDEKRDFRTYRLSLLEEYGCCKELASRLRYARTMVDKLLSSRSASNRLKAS

Row | IC50 (CDK9/cyclin T1) [nM] | also measured | SMILES
1 | 50 |  | Cc1noc(NS(=O)(=O)c2ccc(Nc3nccc(-c4ccc(Cl)cc4Cl)n3)cc2)c1C
2 | 135 |  | COc1cc(F)ccc1-c1ccnc(Nc2ccc(C(=O)Nc3onc(C)c3C)cc2)n1
3 | 5 |  | CCOc1cc(Cl)ccc1-c1ccnc(Nc2ccc(S(=O)(=O)Nc3nnc(C)s3)cc2)n1
4 | 3 | inhibition [1]: 56%; IC50 (RPMI-8226): 29.2 µM | COc1ccccc1-c1ccnc(Nc2ccc(S(=O)(=O)Nc3onc(C)c3C)cc2)n1
5 | 10 |  | COc1cc(F)c(F)cc1-c1ccnc(Nc2ccc(S(=O)(=O)Nc3nnc(C)s3)cc2)n1
6 | 210 |  | CCOc1cc(F)ccc1-c1ccnc(Nc2ccc(S(=O)(=O)Nc3nccs3)cc2)n1
7 | 25 |  | COc1cccc(Cl)c1-c1ccnc(Nc2ccc(S(=O)(=O)Nc3onc(C)c3C)cc2)n1
8 | > 12500 |  | COc1cc(F)c(Nc2nccc(-c3ccc(F)cc3OC(C)C)n2)cc1C(N)=O
9 | 6 |  | COc1cc(F)ccc1-c1ccnc(Nc2ccc(S(=O)(=O)Nc3nnc(C)s3)cc2)n1
10 | 12 |  | COc1cc(Cl)ccc1-c1ccnc(Nc2ccc(S(=O)(=O)Nc3onc(C)c3C)cc2)n1
11 | 9 |  | COc1ccc(F)cc1-c1ccnc(Nc2ccc(S(=O)(=O)Nc3nnc(C)s3)cc2)n1
12 | 2 | inhibition [2]: 0%; IC50 [3]: > 12.5 µM; inhibition [4]: 14% | CCOc1cccc(F)c1-c1ccnc(Nc2ccc(S(=O)(=O)Nc3onc(C)c3C)cc2)n1
13 | 8 | inhibition [1]: 11% | CCOc1cc(F)ccc1-c1ccnc(Nc2ccc(S(=O)(=O)Nc3onc(C)c3C)cc2)n1
14 | 55 |  | Cc1noc(NS(=O)(=O)c2ccc(Nc3nccc(-c4ccc(F)cc4Cl)n3)cc2)c1C
15 | > 12500 |  | CCOc1cc(Cl)ccc1-c1ccnc(Nc2cc(C(N)=O)c(OC)cc2F)n1
16 | 2 |  | CCOc1cc(F)ccc1-c1ccnc(Nc2ccc(S(=O)(=O)Nc3nnc(C)s3)cc2)n1
17 | 66 |  | COc1cc(F)ccc1-c1ccnc(Nc2ccc(C(=O)O)cc2)n1
18 | 6 |  | Cc1cc(F)ccc1-c1ccnc(Nc2ccc(S(=O)(=O)Nc3onc(C)c3C)cc2)n1
19 | 378 |  | CCOc1cc(Cl)ccc1-c1ccnc(Nc2ccc(S(=O)(=O)Nc3nccs3)cc2)n1
20 | 2 | inhibition [1]: 35%; inhibition [2]: 3%; IC50 [3]: > 12.5 µM; inhibition [4]: 43% | COc1cc(F)ccc1-c1ccnc(Nc2ccc(S(=O)(=O)Nc3onc(C)c3C)cc2)n1
21 | 9 |  | COc1ccc(F)cc1-c1ccnc(Nc2ccc(S(=O)(=O)Nc3onc(C)c3C)cc2)n1
22 | 14 |  | COc1ccc(-c2ccnc(Nc3ccc(S(=O)(=O)Nc4nnc(C)s4)cc3)n2)c(OC)c1
23 | 3 | inhibition [2]: 0%; IC50 [3]: > 12.5 µM; inhibition [4]: 0% | COc1cc(F)ccc1-c1ccnc(Nc2ccc(S(=O)(=O)Nc3noc(C)c3C)cc2)n1
24 | 1 | inhibition [1]: 75%; inhibition [2]: 2%; IC50 [3]: 5.91 µM; inhibition [4]: 83% | COc1ccc(F)c(F)c1-c1ccnc(Nc2ccc(S(=O)(=O)Nc3onc(C)c3C)cc2)n1
25 | 2 | inhibition [2]: 0%; IC50 [3]: > 12.5 µM; IC50 (RPMI-8226): 1.78 µM; inhibition [4]: 44% | COc1cccc(F)c1-c1ccnc(Nc2cccc(Cn3cnc4ccccc43)c2)n1
26 | 11 | inhibition [1]: 55% | Cc1noc(NS(=O)(=O)c2ccc(Nc3nccc(-c4ccc(F)cc4F)n3)cc2)c1C

Row | IC50 (CDK9/cyclin T1) [nM] | also measured | SMILES
27 | 122 |  | COc1cc(F)ccc1-c1ccnc(Nc2ccc(S(=O)(=O)Nc3nccs3)cc2)n1
28 | 33 | IC50 (RPMI-8226): 24.7 µM | COc1ccccc1-c1ccnc(Nc2ccc(S(=O)(=O)Nc3nccs3)cc2)n1
29 | 4 |  | COc1cc(F)ccc1-c1ccnc(Nc2cccc(Cn3cnc4ccccc43)c2)n1
30 | 5 | IC50 (RPMI-8226): 15.5 µM | COc1cc(F)ccc1-c1ccnc(Nc2ccc(S(=O)(=O)Nc3noc4ccccc34)cc2)n1
31 | 4 | IC50 (RPMI-8226): 12.3 µM | COc1ccccc1-c1ccnc(Nc2ccc(S(=O)(=O)Nc3noc(C)c3C)cc2)n1
32 | 3 | inhibition [2]: 0%; IC50 [3]: > 12.5 µM; IC50 (RPMI-8226): 1.34 µM; inhibition [4]: 9% | COc1ccccc1-c1ccnc(Nc2cccc(Cn3cnc4ccccc43)c2)n1
33 | > 12500 |  | COc1cc(F)c(Nc2nccc(-c3ccc(F)cc3OC)n2)cc1C(N)=O
34 | 458 | inhibition [1]: 65% | Cc1noc(NS(=O)(=O)c2ccc(Nc3nccc(-c4cccc(OC(C)C)c4F)n3)cc2)c1C
35 | 13 |  | CSc1cc(F)ccc1-c1ccnc(Nc2ccc(S(=O)(=O)Nc3onc(C)c3C)cc2)n1
36 | 21 |  | COc1cc(F)c(-c2ccnc(Nc3ccc(S(=O)(=O)Nc4onc(C)c4C)cc3)n2)c(F)c1
37 | > 12500 |  | COc1cc(F)ccc1-c1ccnc(Nc2ccc(-c3c(C)noc3C)cc2)n1
38 | 12 |  | COc1ccccc1-c1ccnc(Nc2ccc(S(=O)(=O)Nc3nnc(C)s3)cc2)n1
39 | 17 | inhibition [1]: 5% | CCOc1cc(Cl)ccc1-c1ccnc(Nc2ccc(S(=O)(=O)Nc3onc(C)c3C)cc2)n1
40 | 9 | inhibition [1]: 34% | COc1ccc(-c2ccnc(Nc3ccc(S(=O)(=O)Nc4onc(C)c4C)cc3)n2)c(OC)c1
41 | 1 | inhibition [2]: 1%; IC50 [3]: 12.3 µM; IC50 (RPMI-8226): 26.6 µM; inhibition [4]: 44% | COc1cccc(F)c1-c1ccnc(Nc2ccc(S(=O)(=O)Nc3onc(C)c3C)cc2)n1
42 | > 12500 |  | CCOc1cc(F)ccc1-c1ccnc(Nc2cc(C(N)=O)c(OC)cc2F)n1
43 | > 12500 |  | COc1cc(F)c(Nc2nccc(-c3cc(F)c(F)cc3OC)n2)cc1C(N)=O
44 | 2 | inhibition [2]: 0%; IC50 [3]: > 12.5 µM; inhibition [4]: 46% | COc1cccc(F)c1-c1ccnc(Nc2ccc(S(=O)(=O)Nc3nccs3)cc2)n1
45 | 40 |  | COc1cc(F)ccc1-c1cc(Nc2ccc(S(=O)(=O)Nc3onc(C)c3C)cc2)ncn1
46 | 8 | inhibition [1]: 37% | COc1cc(F)c(F)cc1-c1ccnc(Nc2ccc(S(=O)(=O)Nc3onc(C)c3C)cc2)n1
47 | > 12500 | IC50 (RPMI-8226): 20.5 µM | COc1cc(F)c(Nc2nccc(-c3c(F)cccc3OC)n2)cc1C(N)=O
48 | 0.4 | inhibition [2]: 7%; IC50 [3]: > 12.5 µM; IC50 (RPMI-8226): 11.7 µM; inhibition [4]: 50% | COc1ccc(F)c(F)c1-c1ccnc(Nc2ccc(S(=O)(=O)Nc3nnc(C)s3)cc2)n1
49 | > 12500 |  | COc1cc(F)c(Nc2nccc(-c3ccc(F)cc3F)n2)cc1C(N)=O
50 | 1580 | IC50 (RPMI-8226): 21.5 µM | COc1cc(F)c(Nc2nccc(-c3ccccc3OC)n2)cc1C(N)=O
51 | 2 | inhibition [2]: 2%; IC50 [3]: > 12.5 µM; inhibition [4]: 29% | COc1cccc(F)c1-c1ccnc(Nc2ccc(S(=O)(=O)Nc3nnc(C)s3)cc2)n1
52 | 49 | inhibition [1]: 13% | Cc1noc(NS(=O)(=O)c2ccc(Nc3nccc(-c4ccc(F)cc4OC(C)C)n3)cc2)c1C
